Results published in patent US9511073B2, “Aromatic amides and uses thereof” (TAXIS Pharmaceuticals, Inc., priority 2011, dated 2016).
Converted amounts (≈) assume the structure as drawn.

System: Staphylococcus aureus (Isolate ID ATCC 29213)
Assay: Bacterial assay: MIC by broth microdilution or agar dilution (CLSI), S. aureus ATCC 29213
Assay type: cell-based
Conditions: Staphylococcus aureus, ATCC29213, read-out: S. aureus MIC (μg/mL) Activity Range, S. aureus (ATCC29213)
Summary of the method: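 Activity is binned (A ≤0.25 μg/mL; B >0.25–1.0; C >1.0–16; D >16 μg/mL) from MICs determined per CLSI by broth microdilution or agar dilution, on S. aureus ATCC 29213 plus an FtsZ-G196A mutant strain.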

| SMILES | MIC [µg/mL] |
| --- | --- |
| CC(=O)OCC(COC(C)=O)CC(Oc1ccc(F)c(C(N)=O)c1F)c1nc(-c2ccc(C(F)(F)F)cc2)c(Br)o1 (centres unmarked) [Compound 133, 2-(2-(5-bromo-4-(4-(trifluoromethyl)phenyl)oxazol-2-yl)-2-(3-carbamoyl-2,4-difluorophenoxy)ethyl)propane-1,3-diyl diacetate] | > 16 |
| CN(C)CCC(Oc1ccc(F)c(C(N)=O)c1F)c1nc(-c2ccc(C(F)(F)F)cc2)c(Br)o1 (centres unmarked) [Compound 98, 3-(1-(5-bromo-4-(4-(trifluoromethyl)phenyl)oxazol-2-yl)-3-(dimethylamino)propoxy)-2,6-difluorobenzamide] | 1 to 16 (≈ 1.82 to 29.2 µM) |
| NC(=O)c1c(F)ccc(OC(CNC(=O)c2cccnc2)c2nc(-c3ccc(C(F)(F)F)cc3)co2)c1F (centres unmarked) [Compound 293, N-(2-(3-carbamoyl-2,4-difluorophenoxy)-2-(4-(4-(trifluoromethyl)phenyl)oxazol-2-yl)ethyl)nicotinamide] | > 16 |
| CCOC(=O)C(Oc1ccc(F)c(C(N)=O)c1F)c1coc(-c2ccc(C(F)(F)F)cc2)n1 (centres unmarked) [Compound 129, ethyl 2-(3-carbamoyl-2,4-difluorophenoxy)-2-(2-(4-(trifluoromethyl)phenyl)oxazol-4-yl)acetate] | 1 to 16 (≈ 2.13 to 34 µM) |
| COc1ncc(-c2nc(C(C)Oc3ccc(F)c(C(N)=O)c3F)sc2Cl)s1 (centres unmarked) [Compound 35] | < 0.25 |
| NC(=O)c1c(F)ccc(OC(CO)c2nc(-c3ccc(Cl)c(F)c3)co2)c1F (centres unmarked) [Compound 222, 3-(1-(4-(4-chloro-3-fluorophenyl)oxazol-2-yl)-2-hydroxyethoxy)-2,6-difluorobenzamide] | > 16 |
| NC(=O)c1c(F)ccc(OC(CO)c2nc(-c3ccc(Cl)c(F)c3)c(Br)o2)c1F (centres unmarked) [Compound 225, 3-(1-(5-bromo-4-(4-chloro-3-fluorophenyl)oxazol-2-yl)-2-hydroxyethoxy)-2,6-difluorobenzamide] | 0.25 to 1 (≈ 0.508 to 2.03 µM) |
| Cc1cc(CNC(=O)OCC(Oc2ccc(F)c(C(N)=O)c2F)c2nc(-c3ccc(C(F)(F)F)cc3)c(Br)o2)nn1C (centres unmarked) [Compound 213, 2-(5-bromo-4-(4-(trifluoromethyl)phenyl)oxazol-2-yl)-2-(3-carbamoyl-2,4-difluorophenoxy)ethyl ((1,5-dimethyl-1H-pyrazol-3-yl)methyl)carbamate] | 0.25 to 1 (≈ 0.38 to 1.52 µM) |
| NC(=O)c1c(F)ccc(OC(COC(=O)Nc2cccnc2)c2nc(-c3ccc(C(F)(F)F)cc3)c(Br)o2)c1F (centres unmarked) [Compound 170, 2-(5-bromo-4-(4-(trifluoromethyl)phenyl)oxazol-2-yl)-2-(3-carbamoyl-2,4-difluorophenoxy)ethyl pyridin-3-ylcarbamate] | 0.25 to 1 (≈ 0.399 to 1.59 µM) |
| CCOC(=O)C(Oc1ccc(F)c(C(N)=O)c1F)c1nc(-c2ccc(Cl)cc2)co1 (centres unmarked) [Compound 6, ethyl 2-(3-carbamoyl-2,4-difluorophenoxy)-2-(4-(4-chlorophenyl)oxazol-2-yl)acetate] | 1 to 16 (≈ 2.29 to 36.6 µM) |
| NC(=O)c1c(F)ccc(OC(CNC(=O)c2ccccn2)c2nc(-c3ccc(C(F)(F)F)cc3)co2)c1F (centres unmarked) [Compound 294, N-(2-(3-carbamoyl-2,4-difluorophenoxy)-2-(4-(4-(trifluoromethyl)phenyl)oxazol-2-yl)ethyl)picolinamide] | > 16 |
| C[C@H](O)[C@@H](Oc1ccc(F)c(C(N)=O)c1F)c1nc(-c2ccc(OC(F)F)cc2)c(Br)o1 [Compound 300, 3-((1R,2S)-1-(5-bromo-4-(4-(difluoromethoxy)phenyl)oxazol-2-yl)-2-hydroxypropoxy)-2,6-difluorobenzamide] | < 0.25 |
| CS(=O)(=O)NCC(Oc1ccc(F)c(C(N)=O)c1F)c1nc(-c2ccc(C(F)(F)F)cc2)c(Br)o1 (centres unmarked) [Compound 285, 3-(1-(5-bromo-4-(4-(trifluoromethyl)phenyl)oxazol-2-yl)-2-(methylsulfonamido)ethoxy)-2,6-difluorobenzamide] | 1 to 16 (≈ 1.71 to 27.4 µM) |
| NC(=O)c1c(F)ccc(O[C@H](CO)c2nc(-c3ccc(C(=O)N4CCOCC4)cc3)c(Br)o2)c1F [Compound 255B, (R)-3-(1-(5-bromo-4-(4-(morpholine-4-carbonyl)phenyl)oxazol-2-yl)-2-hydroxyethoxy)-2,6-difluorobenzamide] | > 16 |
| CCOC(=O)CCC(=O)OCC(Oc1ccc(F)c(C(N)=O)c1F)c1nc(-c2ccc(C(F)(F)F)cc2)c(Cl)o1 (centres unmarked) [Compound 56, 2-(3-carbamoyl-2,4-difluorophenoxy)-2-(5-chloro-4-(4-(trifluoromethyl)phenyl)oxazol-2-yl)ethyl ethyl succinate] | 0.25 to 1 |
| COc1ccc(-c2nc(C(CO)Oc3ccc(F)c(C(N)=O)c3F)oc2Br)cn1 (centres unmarked) [Compound 230, 3-(1-(5-bromo-4-(6-methoxypyridin-3-yl)oxazol-2-yl)-2-hydroxyethoxy)-2,6-difluorobenzamide] | 1 to 16 (≈ 2.13 to 34 µM) |
| CC(Oc1ccc(F)c(C(N)=O)c1F)c1nc(Br)c(-c2ccc(C(F)(F)F)cc2)o1 (centres unmarked) [Compound 123] | 1 to 16 (≈ 2.04 to 32.6 µM) |
| CN(C)C(=O)C(Oc1ccc(F)c(C(N)=O)c1F)c1nc(-c2ccc(Cl)cc2)cs1 (centres unmarked) [Compound 31, 3-(1-(4-(4-chlorophenyl)thiazol-2-yl)-2-(dimethylamino)-2-oxoethoxy)-2,6-difluorobenzamide] | 1 to 16 (≈ 2.21 to 35.4 µM) |

| SMILES | MIC [µg/mL] |
| --- | --- |
| CC(=O)OCC(Oc1ccc(F)c(C(N)=O)c1F)c1nc(-c2ccc(C(F)(F)F)cc2)c(Br)o1 (centres unmarked) [Compound 37, 2-(5-bromo-4-(4-(trifluoromethyl)phenyl)oxazol-2-yl)-2-(3-carbamoyl-2,4-difluorophenoxy)ethyl acetate] | 0.25 to 1 |
| NC(=O)CCC(Oc1ccc(F)c(C(N)=O)c1F)c1nc(-c2ccc(C(F)(F)F)cc2)c(Br)o1 (centres unmarked) [Compound 101, 3-(4-amino-1-(5-bromo-4-(4-(trifluoromethyl)phenyl)oxazol-2-yl)-4-oxobutoxy)-2,6-difluorobenzamide] | 0.25 to 1 (≈ 0.456 to 1.82 µM) |
| Cc1nc(-c2ccc(-c3nc(C(CO)Oc4ccc(F)c(C(N)=O)c4F)oc3Br)cc2)no1 (centres unmarked) [Compound 83, 3-(1-(5-bromo-4-(4-(5-methyl-1,2,4-oxadiazol-3-yl)phenyl)oxazol-2-yl)-2-hydroxyethoxy)-2,6-difluorobenzamide] | 1 to 16 (≈ 1.92 to 30.7 µM) |
| NC(=O)c1c(F)ccc(OC(CO)c2nc(-c3ccc(OC(F)(F)F)cc3)c(Br)o2)c1F (centres unmarked) [Compound 116, 3-(1-(5-bromo-4-(4-(trifluoromethoxy)phenyl)oxazol-2-yl)-2-hydroxyethoxy)-2,6-difluorobenzamide] | < 0.25 |
| Cc1ccc(-c2nc(C(CO)Oc3ccc(F)c(C(N)=O)c3F)oc2Br)cn1 (centres unmarked) [Compound 231, 3-(1-(5-bromo-4-(6-methylpyridin-3-yl)oxazol-2-yl)-2-hydroxyethoxy)-2,6-difluorobenzamide] | > 16 |
| NC(=O)c1c(F)ccc(OC(COC(=O)NCCO)c2nc(-c3ccc(C(F)(F)F)cc3)c(Br)o2)c1F (centres unmarked) [Compound 163, 2-(5-bromo-4-(4-(trifluoromethyl)phenyl)oxazol-2-yl)-2-(3-carbamoyl-2,4-difluorophenoxy)ethyl (2-hydroxyethyl)carbamate] | 0.25 to 1 (≈ 0.421 to 1.68 µM) |
| Cc1noc(CNC(=O)OCC(Oc2ccc(F)c(C(N)=O)c2F)c2nc(-c3ccc(C(F)(F)F)cc3)c(Br)o2)n1 (centres unmarked) [Compound 179, 2-(5-bromo-4-(4-(trifluoromethyl)phenyl)oxazol-2-yl)-2-(3-carbamoyl-2,4-difluorophenoxy)ethyl ((3-methyl-1,2,4-oxadiazol-5-yl)methyl)carbamate] | < 0.25 |
| NC(=O)c1c(F)ccc(OC(CO)c2nc(-c3ccc(C(=O)O)cc3)c(Br)o2)c1F (centres unmarked) [Compound 251, 4-(5-bromo-2-(1-(3-carbamoyl-2,4-difluorophenoxy)-2-hydroxyethyl)oxazol-4-yl)benzoic acid] | > 16 |
| NC(=O)c1c(F)ccc(OC(COC(=O)Nc2ccncc2)c2nc(-c3ccc(C(F)(F)F)cc3)c(Br)o2)c1F (centres unmarked) [Compound 176, 2-(5-bromo-4-(4-(trifluoromethyl)phenyl)oxazol-2-yl)-2-(3-carbamoyl-2,4-difluorophenoxy)ethyl pyridin-4-ylcarbamate] | 0.25 to 1 (≈ 0.399 to 1.59 µM) |
| CC(=O)OCC(Oc1cccc(C(N)=O)c1F)c1nc(-c2ccc(C(F)(F)F)cc2)c(Br)o1 (centres unmarked) [Compound 158, 2-(5-bromo-4-(4-(trifluoromethyl)phenyl)oxazol-2-yl)-2-(3-carbamoyl-2-fluorophenoxy)ethyl acetate] | < 0.25 |
| Cc1ncccc1CNC(=O)OCC(Oc1ccc(F)c(C(N)=O)c1F)c1nc(-c2ccc(C(F)(F)F)cc2)c(Br)o1 (centres unmarked) [Compound 215, 2-(5-bromo-4-(4-(trifluoromethyl)phenyl)oxazol-2-yl)-2-(3-carbamoyl-2,4-difluorophenoxy)ethyl ((2-methylpyridin-3-yl)methyl)carbamate] | 0.25 to 1 (≈ 0.381 to 1.53 µM) |
| NC(=O)c1c(F)ccc(OC(COC(=O)NCCc2c[nH]cn2)c2nc(-c3ccc(C(F)(F)F)cc3)c(Br)o2)c1F (centres unmarked) [Compound 162, 2-(5-bromo-4-(4-(trifluoromethyl)phenyl)oxazol-2-yl)-2-(3-carbamoyl-2,4-difluorophenoxy)ethyl (2-(1H-imidazol-4-yl)ethyl)carbamate] | 1 to 16 (≈ 1.55 to 24.8 µM) |
| C=CCc1oc(C(CC)Oc2ccc(F)c(C(N)=O)c2F)nc1-c1ccc(Cl)cc1 (centres unmarked) [Compound 22, 3-(1-(5-allyl-4-(4-chlorophenyl)oxazol-2-yl)propoxy)-2,6-difluorobenzamide] | 1 to 16 (≈ 2.31 to 37 µM) |
| CSc1ccc(OC(CO)c2nc(-c3ccc(C(F)(F)F)cc3)c(SC)o2)c(F)c1C(N)=O (centres unmarked) [Compound 270, 2-fluoro-3-(2-hydroxy-1-(5-(methylthio)-4-(4-(trifluoromethyl)phenyl)oxazol-2-yl)ethoxy)-6-(methylthio)benzamide] | > 16 |
| CS(=O)(=O)NCC(Oc1ccc(F)c(C(N)=O)c1F)c1nc(-c2ccc(C(F)(F)F)cc2)co1 (centres unmarked) [Compound 284, 2,6-difluoro-3-(2-(methylsulfonamido)-1-(4-(4-(trifluoromethyl)phenyl)oxazol-2-yl)ethoxy)benzamide] | > 16 |
| COc1ccc(-c2csc(C(CO)Oc3ccc(F)c(C(N)=O)c3F)n2)nc1 (centres unmarked) [Compound 260, 2,6-difluoro-3-(2-hydroxy-1-(4-(5-methoxypyridin-2-yl)thiazol-2-yl)ethoxy)benzamide] | 1 to 16 (≈ 2.45 to 39.3 µM) |
| CC(Oc1ccc(F)c(C(N)=O)c1F)c1nc(-c2ccc(C(F)(F)F)cn2)c(Br)o1 (centres unmarked) [Compound 54] | 0.25 to 1 (≈ 0.508 to 2.03 µM) |
